Where two headings read alike, the source gives them in different places. Where a SMILES comes first, the peptide text is derived from it. [ ]: non-standard residue; d: D form. The star is where a group is joined. NMeK = CN[C@@H](CCCCN)C(=O)O; Pent4ynoyl = C#CCCC(=O)*
What was measured:
[1] = biological target: T1, αvβ6-integrin (Homo sapiens, UniProt P06756+P18564); parameters: method as in PMID 34559266; conditions: ELISA; read-out: IC50 (95% confidence interval) αvβ6; cited from earlier work
[2] = biological target: T2, αvβ8-integrin (Homo sapiens, UniProt P06756+P26012); parameters: method as in PMID 34559266; conditions: ELISA; read-out: IC50 (95% confidence interval) αvβ8; cited from earlier work
[3] = biological target: T3, αvβ3-integrin (Homo sapiens, UniProt P05106+P06756); parameters: method as in PMID 34559266; conditions: ELISA; read-out: IC50 (95% confidence interval) αvβ3; cited from earlier work
[4] = biological target: T4, α5β1-integrin (Homo sapiens, UniProt P05556+P08648); parameters: method as in PMID 34559266; conditions: ELISA; read-out: IC50 (95% confidence interval) α5β1; cited from earlier work
[5] = biological target: T1, αvβ6-integrin; assay: ELISA on immobilized integrins, αvβ6; type: binding; conditions: for IC50: ELISA, read-out: IC50 (95% confidence interval) αvβ6; for αvβ6-selectivity over α5β1 / αvβ6-selectivity over αvβ3 / αvβ6-selectivity over αvβ8: IC50-based
Description: (§1) The integrin affinities of the monomers were determined using an established ELISA protocol,[36] and expressed as 50% inhibitory concentrations (IC50, Table 1).
(§2) Unless otherwise noted, the materials and the instrumentation used (analytical and preparative HPLC, ESI-MS, gamma counter, centrifuge), and the experimental procedures (^68Ga radiolabeling and radio-TLC for quality control, determination of log D7.4, cultivation of H2009 human lung adenocarcinoma cells, generation of tumor xenografts in CB17 SCID mice, small-animal PET, and biodistribution) were described before.[19] All animal experiments have been carried out according to applicable law and institutional guidelines of Technical University of Munich, and were approved by the responsible local authority (Regierung von Oberbayern). The H2009 cells were regularly authenticated and tested for mycoplasma contamination. The affinities of the pentynoic amide functionalized peptides were determined employing a well-established ELISA protocol on immobilized integrins.[36] TRAP-triazide,[38]FF (previously termed AvB6),[32] and YY (also referred to as Tyr2-alkyne)[33] were synthesized as described previously. RP-HPLC for assessment of compound polarity was done on a 150 × 4.6 mm ReproSil-Pur 120 C18-AQ 5 μm column, with a flow of 0.75 mL min^−1 and a gradient of 10–50% MeCN in water, both containing 0.1% trifluoroacetic acid, within 15 min. The required ^natGa-complexes of the peptide trimers were synthesized by reaction with equimolar amounts of aq. GaCl3 as described.[19]

[6] = biological target: T2, αvβ8-integrin; assay: ELISA on immobilized integrins, αvβ8; type: binding; conditions: read-out: IC50 (95% confidence interval) αvβ8
Description: as §1
as §2, with “RP-HPLC for assessment of compound polarity was done on a 150 × 4.6 mm ReproSil-Pur 120 C18-AQ 5 μm column, with a flow of 0.75 mL min^−1 and a gradient of 10–50% MeCN in water, both containing 0.1% trifluoroacetic acid, within 15 min. The required ^natGa-complexes of the peptide trimers were synthesized by reaction with equimolar amounts of aq. GaCl3 as described.[19]” left out

[7] = biological target: T3, αvβ3-integrin; assay: ELISA on immobilized integrins, αvβ3; type: binding; conditions: read-out: IC50 (95% confidence interval) αvβ3
Description: as §1
as §2, with “RP-HPLC for assessment of compound polarity was done on a 150 × 4.6 mm ReproSil-Pur 120 C18-AQ 5 μm column, with a flow of 0.75 mL min^−1 and a gradient of 10–50% MeCN in water, both containing 0.1% trifluoroacetic acid, within 15 min. The required ^natGa-complexes of the peptide trimers were synthesized by reaction with equimolar amounts of aq. GaCl3 as described.[19]” left out

[8] = biological target: T4, α5β1-integrin; assay: ELISA on immobilized integrins, α5β1; type: binding; conditions: read-out: IC50 (95% confidence interval) α5β1
Description: as §1
as §2, with “RP-HPLC for assessment of compound polarity was done on a 150 × 4.6 mm ReproSil-Pur 120 C18-AQ 5 μm column, with a flow of 0.75 mL min^−1 and a gradient of 10–50% MeCN in water, both containing 0.1% trifluoroacetic acid, within 15 min. The required ^natGa-complexes of the peptide trimers were synthesized by reaction with equimolar amounts of aq. GaCl3 as described.[19]” left out

[9] = tested on: H2009 bearing SCID mice; conditions: mouse, in vivo
Description: Fig. 3 Positron emission tomography (PET) of severe combined immunodeficient (SCID) mice bearing subcutaneous H2009 (human lung adenocarcinoma) xenografts on the right shoulder. Dynamic scans for determination of biokinetics (a and b) were recorded in list mode and reconstructed in multiple frames with increasing time spans. Static images (c and d) were recorded over 20 min, 75 min after tracer administration, and reconstructed as single frames using the OSEM3D algorithm. […]
Unless otherwise noted, the materials and the instrumentation used (analytical and preparative HPLC, ESI-MS, gamma counter, centrifuge), and the experimental procedures (^68Ga radiolabeling and radio-TLC for quality control, determination of log D7.4, cultivation of H2009 human lung adenocarcinoma cells, generation of tumor xenografts in CB17 SCID mice, small-animal PET, and biodistribution) were described before.[19] […] The affinities of the pentynoic amide functionalized peptides were determined employing a well-established ELISA protocol on immobilized integrins.[36] […]

T1 sequence (P06756 31-992 limits assumed): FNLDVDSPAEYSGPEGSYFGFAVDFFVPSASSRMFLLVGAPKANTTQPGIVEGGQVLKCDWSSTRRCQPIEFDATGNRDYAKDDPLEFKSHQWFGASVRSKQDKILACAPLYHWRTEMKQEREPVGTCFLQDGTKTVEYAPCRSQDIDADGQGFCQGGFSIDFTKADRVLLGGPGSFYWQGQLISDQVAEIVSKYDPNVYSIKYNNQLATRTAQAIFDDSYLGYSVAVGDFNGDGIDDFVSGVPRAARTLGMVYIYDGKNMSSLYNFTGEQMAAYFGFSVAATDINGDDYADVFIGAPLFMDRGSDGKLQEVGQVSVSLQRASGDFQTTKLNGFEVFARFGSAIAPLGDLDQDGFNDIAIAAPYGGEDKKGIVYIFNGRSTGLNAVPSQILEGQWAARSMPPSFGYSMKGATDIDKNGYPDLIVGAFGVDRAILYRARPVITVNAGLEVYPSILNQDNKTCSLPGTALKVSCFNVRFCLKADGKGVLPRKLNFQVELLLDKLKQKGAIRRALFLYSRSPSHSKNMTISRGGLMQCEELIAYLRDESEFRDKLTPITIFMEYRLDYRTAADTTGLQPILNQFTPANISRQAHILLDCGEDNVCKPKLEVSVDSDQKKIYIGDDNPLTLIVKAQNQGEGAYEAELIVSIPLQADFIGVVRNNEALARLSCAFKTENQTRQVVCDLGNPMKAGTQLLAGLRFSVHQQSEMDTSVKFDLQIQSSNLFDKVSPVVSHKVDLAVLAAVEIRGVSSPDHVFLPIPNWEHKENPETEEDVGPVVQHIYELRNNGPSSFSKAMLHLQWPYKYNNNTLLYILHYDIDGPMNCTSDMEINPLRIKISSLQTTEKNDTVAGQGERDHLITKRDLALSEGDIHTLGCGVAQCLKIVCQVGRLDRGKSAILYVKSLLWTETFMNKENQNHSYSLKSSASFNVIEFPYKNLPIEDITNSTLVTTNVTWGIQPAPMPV
T1 sequence (P18564 22-707 limits assumed): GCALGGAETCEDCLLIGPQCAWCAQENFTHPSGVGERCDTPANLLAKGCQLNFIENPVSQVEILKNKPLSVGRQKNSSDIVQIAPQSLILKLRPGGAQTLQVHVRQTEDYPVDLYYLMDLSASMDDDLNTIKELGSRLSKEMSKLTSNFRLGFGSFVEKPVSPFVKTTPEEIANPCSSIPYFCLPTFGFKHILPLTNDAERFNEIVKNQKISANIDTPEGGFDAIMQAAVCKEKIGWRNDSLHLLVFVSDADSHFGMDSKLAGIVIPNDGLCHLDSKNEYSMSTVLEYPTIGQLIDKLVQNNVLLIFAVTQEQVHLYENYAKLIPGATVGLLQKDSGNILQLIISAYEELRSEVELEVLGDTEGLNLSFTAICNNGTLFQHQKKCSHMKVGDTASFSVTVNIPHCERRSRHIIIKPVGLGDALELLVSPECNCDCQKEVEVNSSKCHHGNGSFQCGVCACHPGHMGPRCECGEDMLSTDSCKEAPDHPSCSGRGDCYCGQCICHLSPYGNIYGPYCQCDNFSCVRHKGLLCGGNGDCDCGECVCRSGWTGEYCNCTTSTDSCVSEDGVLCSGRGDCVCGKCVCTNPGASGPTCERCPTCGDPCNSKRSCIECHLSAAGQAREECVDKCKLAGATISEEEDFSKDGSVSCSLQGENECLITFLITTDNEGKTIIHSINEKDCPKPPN
T2 sequence (P06756 31-992 limits assumed): as the sequence (P06756 31-992 limits assumed) above
T2 sequence (P26012 43-684 limits assumed): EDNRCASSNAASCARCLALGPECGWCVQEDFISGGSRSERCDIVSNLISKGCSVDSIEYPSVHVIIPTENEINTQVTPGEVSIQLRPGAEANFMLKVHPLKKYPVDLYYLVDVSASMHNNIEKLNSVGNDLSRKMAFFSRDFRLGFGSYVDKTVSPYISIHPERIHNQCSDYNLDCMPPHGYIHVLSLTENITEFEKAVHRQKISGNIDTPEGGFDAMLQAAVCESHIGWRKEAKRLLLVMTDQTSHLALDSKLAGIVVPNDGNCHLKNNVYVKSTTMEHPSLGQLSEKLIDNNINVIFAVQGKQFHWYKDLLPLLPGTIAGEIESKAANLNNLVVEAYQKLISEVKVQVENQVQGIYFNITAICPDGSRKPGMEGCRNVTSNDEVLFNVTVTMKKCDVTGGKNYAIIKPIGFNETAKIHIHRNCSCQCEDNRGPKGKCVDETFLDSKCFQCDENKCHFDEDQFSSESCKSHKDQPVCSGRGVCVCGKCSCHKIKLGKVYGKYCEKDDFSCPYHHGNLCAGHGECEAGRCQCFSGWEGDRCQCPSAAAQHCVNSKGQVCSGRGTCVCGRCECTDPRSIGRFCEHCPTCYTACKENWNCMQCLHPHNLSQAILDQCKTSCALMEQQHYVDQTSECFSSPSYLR
T4 sequence (P08648 42-995 limits assumed): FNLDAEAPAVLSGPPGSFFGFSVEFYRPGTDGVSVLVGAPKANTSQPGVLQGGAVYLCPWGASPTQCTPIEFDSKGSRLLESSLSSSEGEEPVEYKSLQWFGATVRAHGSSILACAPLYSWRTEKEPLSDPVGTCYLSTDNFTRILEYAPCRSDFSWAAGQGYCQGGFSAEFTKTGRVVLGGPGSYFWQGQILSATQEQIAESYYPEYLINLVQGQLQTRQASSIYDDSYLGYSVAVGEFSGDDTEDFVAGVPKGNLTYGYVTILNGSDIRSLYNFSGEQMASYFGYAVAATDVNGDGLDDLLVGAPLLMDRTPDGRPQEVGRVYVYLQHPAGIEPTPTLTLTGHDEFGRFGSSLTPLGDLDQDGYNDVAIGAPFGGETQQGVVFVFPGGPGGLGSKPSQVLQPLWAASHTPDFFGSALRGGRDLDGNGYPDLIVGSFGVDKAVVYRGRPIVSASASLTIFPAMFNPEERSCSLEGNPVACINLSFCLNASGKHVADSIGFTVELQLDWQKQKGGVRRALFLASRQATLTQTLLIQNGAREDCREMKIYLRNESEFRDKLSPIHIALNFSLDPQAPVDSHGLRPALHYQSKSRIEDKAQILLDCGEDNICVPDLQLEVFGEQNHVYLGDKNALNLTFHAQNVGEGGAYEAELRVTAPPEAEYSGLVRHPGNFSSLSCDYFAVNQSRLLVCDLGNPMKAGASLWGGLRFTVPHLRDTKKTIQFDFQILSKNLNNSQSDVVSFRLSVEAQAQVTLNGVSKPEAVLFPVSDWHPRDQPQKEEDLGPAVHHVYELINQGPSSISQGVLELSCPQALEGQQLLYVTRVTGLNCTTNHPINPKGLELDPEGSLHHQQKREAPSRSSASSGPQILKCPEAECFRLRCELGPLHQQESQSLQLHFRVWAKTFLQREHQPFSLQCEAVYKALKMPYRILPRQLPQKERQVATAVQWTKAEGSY
T4 sequence (P05556 21-728 limits assumed): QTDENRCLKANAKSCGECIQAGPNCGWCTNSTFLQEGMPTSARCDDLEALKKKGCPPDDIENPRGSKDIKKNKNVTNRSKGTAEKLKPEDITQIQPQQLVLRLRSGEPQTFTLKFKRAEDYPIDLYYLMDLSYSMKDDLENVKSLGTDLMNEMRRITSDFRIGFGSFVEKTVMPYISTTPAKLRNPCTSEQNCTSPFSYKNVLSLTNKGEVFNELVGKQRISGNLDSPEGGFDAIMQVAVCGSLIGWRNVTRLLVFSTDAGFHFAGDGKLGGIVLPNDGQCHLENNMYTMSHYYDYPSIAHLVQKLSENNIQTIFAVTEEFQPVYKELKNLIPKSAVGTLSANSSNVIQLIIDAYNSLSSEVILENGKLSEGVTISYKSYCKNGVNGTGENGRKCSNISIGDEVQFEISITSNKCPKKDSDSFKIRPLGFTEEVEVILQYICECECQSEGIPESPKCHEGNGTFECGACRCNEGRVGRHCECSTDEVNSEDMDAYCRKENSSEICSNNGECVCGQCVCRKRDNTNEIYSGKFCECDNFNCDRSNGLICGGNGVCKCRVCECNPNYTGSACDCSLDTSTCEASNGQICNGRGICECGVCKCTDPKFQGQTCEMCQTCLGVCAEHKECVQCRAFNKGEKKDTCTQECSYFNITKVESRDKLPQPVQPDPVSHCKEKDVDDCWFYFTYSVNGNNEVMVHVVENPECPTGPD

IC50 [5] | αvβ6-selectivity over α5β1 [5] | αvβ6-selectivity over αvβ3 [5] | αvβ6-selectivity over αvβ8 [5] | IC50 [6] | IC50 [7] | IC50 [8] | Compound | IC50 [1] | IC50 [2] | IC50 [3] | IC50 [4] | Kinetic data Blood [9]
– | – | – | – | – | – | – | YY: cyclo[YRGDLAYp(NMe)K] bearing 4-pentynoic amide on the Lys side chain; alkyne-functionalized peptide monomer (cyclo(YRGDLAY[dP][NMeK](Pent4ynoyl)); SMILES C#CCCC(=O)NCCCC[C@H]1C(=O)N[C@@H](Cc2ccc(O)cc2)C(=O)N[C@@H](CCCNC(=N)N)C(=O)NCC(=O)N[C@@H](CC(=O)O)C(=O)N[C@@H](CC(C)C)C(=O)N[C@@H](C)C(=O)N[C@@H](Cc2ccc(O)cc2)C(=O)N2CCC[C@@H]2C(=O)N1C) | 0.84 nM | 26 nM | 219 nM | 150 nM | –
2.8 nM | 63 | 261 | 13.2 | 37 nM | 732 nM | 177 nM | C#CCCC(=O)NCCCC[C@H]1C(=O)N[C@@H](Cc2ccccc2)C(=O)N[C@@H](CCCNC(=N)N)C(=O)NCC(=O)N[C@@H](CC(=O)O)C(=O)N[C@@H](CC(C)C)C(=O)N[C@@H](C)C(=O)N[C@@H](Cc2ccc(O)cc2)C(=O)N2CCC[C@@H]2C(=O)N1C [FY] (cyclo(FRGDLAY[dP][NMeK](Pent4ynoyl))) | – | – | – | – | –
3.3 nM | 35 | 190 | 6.9 | 23 nM | 630 nM | 114 nM | C#CCCC(=O)NCCCC[C@H]1C(=O)N[C@@H](Cc2ccc(O)cc2)C(=O)N[C@@H](CCCNC(=N)N)C(=O)NCC(=O)N[C@@H](CC(=O)O)C(=O)N[C@@H](CC(C)C)C(=O)N[C@@H](C)C(=O)N[C@@H](Cc2ccccc2)C(=O)N2CCC[C@@H]2C(=O)N1C [YF] (cyclo(YRGDLAF[dP][NMeK](Pent4ynoyl))) | – | – | – | – | –
– | – | – | – | – | – | – | CC(C)C[C@@H]1NC(=O)[C@H](CC(=O)O)NC(=O)CNC(=O)[C@H](CCCNC(=N)N)NC(=O)[C@H](Cc2ccc(O)cc2)NC(=O)[C@H](CCCCNC(=O)CCc2cn(CCCNC(=O)CCP(=O)(O)CN3CCN(CP(=O)(O)CCC(=O)NCCCn4cc(CCC(=O)NCCCC[C@H]5C(=O)N[C@@H](Cc6ccc(O)cc6)C(=O)N[C@@H](CCCNC(=N)N)C(=O)NCC(=O)N[C@@H](CC(=O)O)C(=O)N[C@@H](CC(C)C)C(=O)N[C@@H](C)C(=O)N[C@@H](Cc6ccc(O)cc6)C(=O)N6CCC[C@@H]6C(=O)N5C)nn4)CCN(CP(=O)(O)CCC(=O)NCCCn4cc(CCC(=O)NCCCC[C@H]5C(=O)N[C@@H](Cc6ccc(O)cc6)C(=O)N[C@@H](CCCNC(=N)N)C(=O)NCC(=O)N[C@@H](CC(=O)O)C(=O)N[C@@H](CC(C)C)C(=O)N[C@@H](C)C(=O)N[C@@H](Cc6ccc(O)cc6)C(=O)N6CCC[C@@H]6C(=O)N5C)nn4)CC3)nn2)N(C)C(=O)[C@H]2CCCN2C(=O)[C@H](Cc2ccc(O)cc2)NC(=O)[C@H](C)NC1=O [Y6] | – | – | – | – | 13.14 ± 1.99
– | – | – | – | – | – | – | FF: cyclo[FRGDLAFp(NMe)K] bearing 4-pentynoic amide on the Lys side chain; alkyne-functionalized peptide monomer | 0.17 nM | 32 nM | 424 nM | 226 nM | –

Reference: PMC10718521, “Complexity of αvβ6-integrin targeting RGD peptide trimers: emergence of non-specific binding by synergistic interaction” (RSC Medicinal Chemistry, 2023)
